Test results published in PubChem BioAssay (NCI).
Several values for one entry are separate records, joined by “and”; a condition that tells them apart may be missing. Equal values may be shown once.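 Exposure lasted 48 hours, with cells grown in 96-well plates and compounds tested at five concentrations. GI50 is the concentration that inhibits growth by half. TGI: concentration producing complete growth inhibition.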

Tests used:
Experiment in all cases: NCI tumour cell line growth inhibition, 48 h
EKVX NSCLC = system: EKVX NSCLC
NCI-H460 lung = system: NCI-H460 lung
PC-3 prostate = system: PC-3 prostate
SF-295 CNS = system: SF-295 CNS
SK-MEL-2 melanoma = system: SK-MEL-2 melanoma
SK-MEL-28 melanoma = system: SK-MEL-28 melanoma

Row | Compound | TGI (EKVX NSCLC) [µM] | TGI (NCI-H460 lung) | TGI (PC-3 prostate) | TGI (SF-295 CNS) [µM] | TGI (SK-MEL-2 melanoma) [µM] | TGI (SK-MEL-28 melanoma) [µM] | GI50 (SF-295 CNS)
1 | CC(=O)NC1C(OCC(=O)NCCNc2ccc([N+](=O)[O-])c3[nH]c4ccccc4c(=O)c23)C(O)C(CO)OC1(C)OCc1ccccc1 (configuration not stated) | > 100 | > 100 µM | > 100 µM | > 100 | > 100 | – | –
2 | COc1ccc(-c2oc3cc(-c4cc5oc(-c6ccc(OC)cc6)c(-c6ccc(OC)cc6)c5cc4OC)c(OC)cc3c2-c2ccc(OC)cc2)cc1 | > 100 | > 100 µM | > 100 µM | > 100 | – | > 100 | –
3 | N#Cc1ccccc1OCCOc1ccccc1C#N | > 100 | > 100 µM | > 100 µM | > 100 | > 100 | > 100 | –
4 | CN(NC1=NCCO1)c1ccc2ccccc2c1 | > 100 | > 100 µM | > 100 µM | > 100 | 97.2 | > 100 | –
5 | O=C1CC(O)c2cscc21 (configuration not stated) | > 100 | > 100 µM | > 100 µM | > 100 | > 100 | > 100 | –
6 | CCN(/C=C1/C(=O)C(c2ccccc2)N(c2ccccc2)C1=O)CC (configuration not stated) | > 10 | > 10 µM | > 10 µM | > 10 | > 10 | > 10 | –
7 | COC(=O)/C=C/c1ccc(OP(=O)(O)O)c(OC)c1 | > 100 | > 100 µM | > 100 µM | > 100 | > 100 | > 100 | –
8 | O=C(c1ccc(Cl)cc1)N(C(=O)N1CCCCC1)c1ccccc1 | > 100 | – | > 100 µM | – | > 100 | > 100 | –
9 | N#Cc1sc2nc3ccccc3n2c1N | > 100 | – | > 100 µM | > 100 | 81.7 | > 100 | –
10 | CCOC(=O)c1c(NC(=O)c2ccccc2)c(C#N)c2n1CCCCC2 | > 100 | > 100 µM | > 100 µM | > 100 | – | > 100 | –
11 | CC(SC(=S)N1CCOCC1)C(=O)Nc1nnc(-c2ccc(Cl)cc2)o1 (configuration not stated) | – | > 100 µM | > 100 µM | – | > 100 | > 100 | –
12 | Cc1nc2sc3cccc(Cl)c3n2c(=O)c1N=Nc1ccc(Cl)cc1 | > 100 | > 100 µM | > 100 µM | > 100 | > 100 | > 100 | –
13 | Cc1cc(O)c(/C=N/C(N)=S)c(=O)o1 | > 100 | > 100 µM | > 100 µM | > 100 | > 100 | – | –
14 | CCOc1cnc(C(O)(c2ccccc2)c2ccccc2)o1 | > 100 | > 100 µM | > 100 µM | > 100 | > 100 | > 100 | –
15 | COC(=O)C1CCC(=O)N1CN(C(C)=O)c1cccc(O)c1 (configuration not stated) | > 100 | > 100 µM | > 100 µM | > 100 | > 100 | > 100 | –
16 | Cc1cccc2sc(NC(=O)NS(=O)(=O)n3cnc4ccccc43)nc12 | > 100 | > 100 µM | 95.3 µM | 50.1 | 35.6 | > 100 | –
17 | CC(C)C(Cl)CCC(C)(Cl)C(=O)CBr (configuration not stated) | 32.8 | 33.4 µM | 23.2 µM | 41.2 | 21.9 | 16.3 | –
18 | O=C(CCc1cc(O)cc(O)c1)NCCc1cc(O)cc(OCc2ccccc2)c1 | > 100 | 47.3 µM | > 100 µM | > 100 | > 100 | > 100 | –
19 | Cc1cc2nc3c(C#N)c(-c4ccccc4)/c(=C\Nc4ccc(F)cc4)c(=O)n3c2cc1C | > 100 | > 100 µM | > 100 µM | > 100 | > 100 | > 100 | –
20 | COC(=O)/C=C(\C(=O)OC)c1cc(C)c2cc(C(C)C)ccc(C)c1-2 | > 100 | > 100 µM | > 100 µM | > 100 | > 100 | > 100 | –
21 | COc1cc2nc(Cl)nc(NS(=O)(=O)c3cc4ccccc4s3)c2cc1OC | 66.5 | > 100 µM | 75.6 µM | > 100 | 61.1 | 0.11 | –
22 | CCN(CC)CCNc1ccc([N+](=O)[O-])c2nc3ccc(OC)cc3c(NCCN(CC)CC)c12 | 5.02 | 1.41 µM | 2.1 µM | 2.6 | 4.87 | > 8.37 | –
23 | Cc1ccc(S[C@@](C=O)(NC(=O)OCc2ccccc2)C(F)(F)F)cc1 | 54 | 79.3 µM | 54.9 µM | > 100 | 60.8 | 67.1 | –
24 | Cc1nc2c(sc3nc4c(cc32)CCC4)c(=O)o1 | > 100 | > 100 µM | > 100 µM | > 100 | > 100 | > 100 | –

Row | Compound | TGI (EKVX NSCLC) [µM] | TGI (NCI-H460 lung) | TGI (PC-3 prostate) | TGI (SF-295 CNS) [µM] | TGI (SK-MEL-2 melanoma) [µM] | TGI (SK-MEL-28 melanoma) [µM] | GI50 (SF-295 CNS)
25 | COC(CN(C)C(=S)Nc1cccc2ccccc12)OC | > 10 | > 10 µM | > 10 µM | > 10 | > 10 | > 10 | –
26 | Cc1ccc(N=N/C(=N/NC(=O)c2ccccc2)c2ccc(N(CCC#N)CCC#N)cc2C)cc1 | > 100 | > 100 µM | > 100 µM | > 100 | > 100 | – | –
27 | CC(N)(CC(O)(C(F)(F)Cl)C(F)(F)Cl)C(=O)O (configuration not stated) | > 10 | > 10 µM | > 10 µM | > 10 | – | > 10 | –
28 | COC(=O)[C@@H]1CO[C@H](C(C)(C)C)N1C(=O)N1C=CC(=O)C[C@H]1C | > 100 | – | > 100 µM | > 100 | > 100 | > 100 | –
29 | CC(=O)c1ccc(N=NN2CCCC2)cc1 | > 100 | > 100 µM | > 100 µM | > 100 | > 100 | – | –
30 | NNc1nnc(CCCCCCCCc2nnc(NN)n2N)n1N | > 100 | > 100 µM | > 100 µM | > 100 | > 100 | > 100 | –
31 | O=c1c(-c2ccccc2)nnc2n(Cc3ccccc3)c3ccccc3n12 | > 100 | > 100 µM | – | > 100 | > 100 | > 100 | –
32 | COc1ccccc1C1c2cc3c(cc2OC2(OC)COC(=O)C12)OCO3 (configuration not stated) | > 82.3 | > 100 µM | > 92.7 µM | 63.9 | 55.6 | 44.2 | –
33 | CCCCCCCCCCCCCCCCCCNc1ccn(C2OC(COP(=O)(O)OCC3OC(n4ccc(N)nc4=O)C(O)C3O)C(O)C2O)c(=O)n1 (configuration not stated) | > 100 | > 78.8 µM | > 100 µM | > 100 | > 100 | > 100 | –
34 | O=[N+]([O-])c1ccc(/C=N/Nc2nc3ccccc3[nH]2)o1 | 67.2 | > 100 µM | 49.2 µM | 41.7 | – | 23.8 | –
35 | CN=c1sc2c(n1C)C(=O)c1ccccc1C2=O | 24.3 | 8.01 µM | > 55.1 µM | 3.77 | 6.14 | 3.61 | –
36 | Cc1cc(N(CCC#N)CCC#N)ccc1/C(N=Nc1ccccc1)=N\NC(=O)c1cc(Cl)ccc1O | > 100 | 57.5 µM | > 100 µM | > 100 | > 100 | – | –
37 | C[C@@H]1CC[C@]2(C)C3(C)CC[C@]2(OC3=O)[C@@]12CC(c1ccoc1)OC2=O (some centres not stated) | > 100 | > 100 µM | > 100 µM | > 100 | > 100 | 66.3 | –
38 | S=C1Cc2c(-c3ccccc3)cc(-c3cccc(Cl)c3)nc2-c2ccccc2N1 | 24.4 | 7.11 µM | > 96.1 µM | 17.2 | 28.4 | 51.8 | –
39 | CCOC(=O)C1(C/C=C\CBr)CCCC1=O (configuration not stated) | > 100 | – | > 100 µM | > 100 | > 100 | > 100 | –
40 | O=C(NCCC1CNc2ccccc21)OCc1ccccc1 (configuration not stated) | > 100 | > 100 µM | > 100 µM | > 100 | > 100 | > 100 | –
41 | COC1(OC)c2occc2C(=N)c2ccc(=O)oc21 | > 100 | > 100 µM | > 100 µM | > 100 | > 100 | > 100 | –
42 | COc1cc([C@@H]2c3cc4c(cc3[C@@H](Nc3ccc(NC(=O)c5cc([N+](=O)[O-])cn5C)cc3)[C@H]3COC(=O)[C@H]23)OCO4)cc(OC)c1O | > 100 | 0.174 µM and 0.0745 µM | > 100 µM and 12.5 µM | – | – | > 100 | 0.0513 µM and 0.0793 µM
43 | COc1cc(C2c3cc4c(cc3OC(NN)C2C)OCO4)cc(OC)c1O (configuration not stated) | – | – | > 100 µM | 14.7 | 13.1 | 33.9 | –
44 | C=C1CC[C@@H](CCC2CCC3(OC2)O[C@]2(O)CC[C@@]3(C)OC2(C)C)C(C)(C)[C@H]1C/C=C1\CCOC1=O (some centres not stated) | > 71.5 | 82.7 µM | 93.9 µM | – | 48.3 | > 100 | –
45 | NC1=NC2(COC(c3ccccc3)(c3ccccc3)c3ccccc3)OC(COC(c3ccccc3)(c3ccccc3)c3ccccc3)C(O)C2O1 (configuration not stated) | > 100 | – | > 100 µM | > 100 | 85.5 | > 100 | –
46 | O=C(Nn1c(-c2ccccc2)nc2ccccc2c1=O)c1ccc(Cl)cc1 | > 100 | > 100 µM | > 100 µM | > 100 | – | > 100 | –
47 | O=C1CC(c2cccc(Cl)c2)Nc2ccc(N3CCCC3)cc21 (configuration not stated) | > 100 | – | > 100 µM | > 100 | – | > 100 | –
